In patent US20260226059A1, “HETEROCYCLIC COMPOUNDS AS PI3Ka INHIBITORS” (Pikavation Therapeutics, Inc., priority 2023, published 2026):
pIC50: −log10 of the molar value.

Each compound was assayed on T47D (PIK3CA H1047R) cells (assay: PS473 AKT assay in T47D (PIK3CA H1047R) cells). Conditions: Homo sapiens, pSer473 AKT, DMEM with 2.5% FBS, compound treatment 2 h, read-out: T47D_IC50.
Type: cell-based
Procedure: T47D (PIK3CA H1047R) cells were cultured using 10-cm petri dishes with recommended medium plus 10% fetal bovine serum. One day before the assay, cells were seeded in 96-well plates. After overnight incubation, the medium was changed to DMEM with 2.5% fetal bovine serum (FBS) and the cells were treated with different concentrations of the compounds for 2 h. Cells were then fixed using 4% paraformaldehyde at room temperature for 20 min. Aspirate 4% paraformaldehyde, and wash cells using 1× regular phosphate buffered saline 3 times, 5 min each. Aspirate any residual phosphate buffered saline and block cells using 10% goat serum containing 1% bovine serum albumin and 0.3% Triton X-100 at room temperature for 1 h. Without any additional washing, primary antibodies (rabbit anti-pSer473 AKT) were diluted using blocking buffer and added at a final volume of 50 microliter per well. Keep assay plates with primary antibodies overnight at 4° C. Wash cells using 1× regular phosphate buffered saline 3 times, 5 min each. After the final wash, incubate cells with horseradish peroxidase-conjugated secondary antibodies (goat Anti-rabbit IgG) diluted using the same blocking buffer at room temperature for 1 h. Wash cells thoroughly using 1× regular phosphate buffered saline 3 times, 5 min each. Aspirate any residual phosphate buffered saline. Add Super-Signal ELISA Pico Chemiluminescent Substrate at a final volume of 100 microliter per well. Read plates on i3x Multi-Mode Microplate Reader and calculate IC50 values using GraphPad Prism software.

Row | pIC50 | Structure (SMILES)
1 | 5.30 to 6.00 | CCN1CCn2c1nc1c(C(C)Nc3ccccc3C(=O)O)cc(C)cc1c2=O (centres unmarked) [Example 1, 2-((1-(1-Ethyl-7-methyl-5-oxo-1,2,3,5-tetrahydroimidazo[2,1-b]quinazolin-9-yl)ethyl)amino)benzoic acid]
2 | > 6.00 | CCN1CCn2c1nc1c(C(C)Nc3ccc(Cl)nc3C(=O)O)cc(C)cc1c2=O (centres unmarked) [Example 2, 6-Chloro-3-((1-(1-ethyl-7-methyl-5-oxo-1,2,3,5-tetrahydroimidazo[2,1-b]quinazolin-9-yl)ethyl)amino)picolinic acid]
3 | > 6.00 | Cc1cc(C(C)Nc2ccccc2C(=O)O)c2nc3n(c(=O)c2c1)CCc1ccccc1-3 (centres unmarked) [Example 3, 2-((1-(10-Methyl-8-oxo-5,8-dihydro-6H-isoquinolino[1,2-b]quinazolin-12-yl)ethyl)amino)benzoic acid]
4 | > 6.00 | Cc1cc(C(C)Nc2ccc(C)nc2C(=O)O)c2nc3n(c(=O)c2c1)CCc1ccccc1-3 (centres unmarked) [Example 4, 6-Methyl-3-((1-(10-methyl-8-oxo-5,8-dihydro-6H-isoquinolino[1,2-b]quinazolin-12-yl)ethyl)amino)picolinic acid]
5 | > 6.00 | Cc1cc(C(C)Nc2ccc(Cl)nc2C(=O)O)c2nc3n(c(=O)c2c1)CCc1ccccc1-3 (centres unmarked) [Example 5, 6-Chloro-3-((1-(10-methyl-8-oxo-5,8-dihydro-6H-isoquinolino[1,2-b]quinazolin-12-yl)ethyl)amino)picolinic acid]
